Reference: ChEMBL document CHEMBL1201862, “PubChem BioAssay data set” (2004)
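Following 48 hours of exposure in 96-well plates, responses at five concentrations were used to interpolate endpoints linearly. GI50 = concentration required for 50% inhibition of growth.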 Active and inactive are the calls of the source. No stated cut-off is given here; in the data, active = GI50 up to about 1.1 µM and inactive = higher.

Key:
Test in all cases: NCI tumour cell line growth inhibition, 48 h
786-0 = test system: 786-0
A549 = test system: A549
ACHN = test system: ACHN
CAKI-1 = test system: CAKI-1
CCRF-CEM = test system: CCRF-CEM
COLO 205 = test system: COLO 205
DLD-1 = test system: DLD-1
EKVX = test system: EKVX
HCC 2998 = test system: HCC 2998
HCT-116 = test system: HCT-116
HCT-15 = test system: HCT-15
HL-60 = test system: HL-60
HOP-18 = test system: HOP-18
HOP-62 = test system: HOP-62
HT-29 = test system: HT-29
IGROV-1 = test system: IGROV-1
K562 = test system: K562
KM-20L2 = test system: KM-20L2
KM12 = test system: KM12
LOX IMVI = test system: LOX IMVI
LXFL 529 = test system: LXFL 529
M14 = test system: M14
M19-MEL = test system: M19-MEL
MOLT-4 = test system: MOLT-4
Malme-3M = test system: Malme-3M
NCI-H226 = test system: NCI-H226
NCI-H23 = test system: NCI-H23
NCI-H460 = test system: NCI-H460
NCI-H522 = test system: NCI-H522
OVCAR-3 = test system: OVCAR-3
OVCAR-4 = test system: OVCAR-4
OVCAR-5 = test system: OVCAR-5
OVCAR-8 = test system: OVCAR-8
RPMI-8226 = test system: RPMI-8226
RXF 393 = test system: RXF 393
RXF 631 = test system: RXF 631
SF-268 = test system: SF-268
SF-295 = test system: SF-295
SF-539 = test system: SF-539
SK-MEL-28 = test system: SK-MEL-28
SK-MEL-2 = test system: SK-MEL-2
SK-MEL-5 = test system: SK-MEL-5
SN12C = test system: SN12C
SNB-19 = test system: SNB-19
SNB-78 = test system: SNB-78
SR = test system: SR
SW-620 = test system: SW-620
U-251 = test system: U-251
UACC-257 = test system: UACC-257
UACC-62 = test system: UACC-62
UO-31 = test system: UO-31
XF498 = test system: XF498
A498 = test system: A498
DMS-114 = test system: DMS-114
DMS-273 = test system: DMS-273
HOP-92 = test system: HOP-92
SK-OV-3 = test system: SK-OV-3
SNB-75 = test system: SNB-75
TK-10 = test system: TK-10

## CCOC(=O)/C(C#N)=C1\N[C@H](C(=O)OCC)CO1
786-0
  GI50: > 100 µM (inactive)
A549
  GI50: > 100 µM (inactive)
ACHN
  GI50: > 100 µM (inactive)
CAKI-1
  GI50: > 100 µM (inactive)
CCRF-CEM
  GI50: > 100 µM (inactive)
COLO 205
  GI50: > 100 µM (inactive)
DLD-1
  GI50: > 100 µM (inactive)
EKVX
  GI50: > 100 µM (inactive)
HCC 2998
  GI50: > 100 µM (inactive)
HCT-116
  GI50: > 100 µM (inactive)
HCT-15
  GI50: > 100 µM
HL-60
  GI50: > 100 µM (inactive)
HOP-18
  GI50: > 100 µM (inactive)
HOP-62
  GI50: > 100 µM (inactive)
HT-29
  GI50: > 100 µM (inactive)
IGROV-1
  GI50: > 100 µM (inactive)
K562
  GI50: > 100 µM (inactive)
KM-20L2
  GI50: > 100 µM (inactive)
KM12
  GI50: > 100 µM (inactive)
LOX IMVI
  GI50: > 100 µM (inactive)
LXFL 529
  GI50: > 100 µM (inactive)
M14
  GI50: > 100 µM (inactive)
M19-MEL
  GI50: > 100 µM (inactive)
MOLT-4
  GI50: > 100 µM (inactive)
Malme-3M
  GI50: > 100 µM (inactive)
NCI-H226
  GI50: > 100 µM (inactive)
NCI-H23
  GI50: > 100 µM (inactive)
NCI-H460
  GI50: > 100 µM (inactive)
NCI-H522
  GI50: > 100 µM (inactive)
OVCAR-3
  GI50: > 100 µM (inactive)
OVCAR-4
  GI50: > 100 µM (inactive)
OVCAR-5
  GI50: > 100 µM (inactive)
OVCAR-8
  GI50: > 100 µM (inactive)
RPMI-8226
  GI50: > 100 µM (inactive)
RXF 393
  GI50: > 100 µM (inactive)
RXF 631
  GI50: > 100 µM (inactive)
SF-268
  GI50: > 100 µM (inactive)
SF-295
  GI50: > 100 µM (inactive)
SF-539
  GI50: > 100 µM (inactive)
SK-MEL-28
  GI50: > 100 µM (inactive)
SK-MEL-2
  GI50: 30.4 µM (inactive)
SK-MEL-5
  GI50: > 100 µM (inactive)
SN12C
  GI50: > 100 µM (inactive)
SNB-19
  GI50: > 100 µM (inactive)
SNB-78
  GI50: > 100 µM (inactive)
SR
  GI50: > 100 µM (inactive)
SW-620
  GI50: > 100 µM (inactive)
U-251
  GI50: > 100 µM (inactive)
UACC-257
  GI50: > 100 µM (inactive)
UACC-62
  GI50: > 100 µM (inactive)
UO-31
  GI50: > 100 µM (inactive)
XF498
  GI50: 31.9 µM (inactive)

## CC(=O)OC1OC2C(NC(=O)OC(C)(C)C)C1CC2(OCc1ccccc1)OCc1ccccc1 (centres undefined)
786-0
  GI50: 23.3 µM (inactive)
A498
  GI50: 19.4 µM (inactive)
A549
  GI50: 36.5 µM (inactive)
ACHN
  GI50: 22.4 µM (inactive)
CAKI-1
  GI50: 32.4 µM (inactive)
CCRF-CEM
  GI50: 18.3 µM (inactive)
COLO 205
  GI50: 21.7 µM (inactive)
DMS-114
  GI50: 18.7 µM (inactive)
DMS-273
  GI50: 18.6 µM (inactive)
EKVX
  GI50: 34.7 µM (inactive)
HCC 2998
  GI50: 21.6 µM (inactive)
HCT-116
  GI50: 16.7 µM (inactive)
HCT-15
  GI50: 32.3 µM
HL-60
  GI50: 12.8 µM (inactive)
HOP-18
  GI50: 19.5 µM (inactive)
HOP-62
  GI50: 28.2 µM (inactive)
HOP-92
  GI50: 12.5 µM (inactive)
HT-29
  GI50: 33.7 µM (inactive)
IGROV-1
  GI50: 27 µM (inactive)
K562
  GI50: 17 µM (inactive)
KM-20L2
  GI50: 19.9 µM (inactive)
KM12
  GI50: 27.8 µM (inactive)
LOX IMVI
  GI50: > 10 µM (inactive)
LXFL 529
  GI50: 20 µM (inactive)
M14
  GI50: 20.5 µM (inactive)
M19-MEL
  GI50: 25.8 µM (inactive)
MOLT-4
  GI50: 9.71 µM (inactive)
Malme-3M
  GI50: 14.4 µM (inactive)
NCI-H226
  GI50: 24.7 µM (inactive)
NCI-H23
  GI50: 18.8 µM (inactive)
NCI-H460
  GI50: 34.8 µM (inactive)
NCI-H522
  GI50: 15.1 µM (inactive)
OVCAR-3
  GI50: 16.5 µM (inactive)
OVCAR-5
  GI50: 28.3 µM (inactive)
OVCAR-8
  GI50: 53.8 µM (inactive)
RPMI-8226
  GI50: 11.6 µM (inactive)
RXF 393
  GI50: 14.2 µM (inactive)
RXF 631
  GI50: 33.4 µM (inactive)
SF-268
  GI50: 35.7 µM (inactive)
SF-295
  GI50: 35.2 µM (inactive)
SF-539
  GI50: 18.1 µM (inactive)
SK-MEL-28
  GI50: 20.9 µM (inactive)
SK-MEL-2
  GI50: 19.8 µM (inactive)
SK-MEL-5
  GI50: 17.6 µM (inactive)
SK-OV-3
  GI50: 28.3 µM (inactive)
SN12C
  GI50: 27.2 µM (inactive)
SNB-19
  GI50: 45.1 µM (inactive)
SNB-75
  GI50: 36.2 µM (inactive)
SNB-78
  GI50: 37.6 µM (inactive)
SR
  GI50: 17.8 µM (inactive)
SW-620
  GI50: 32.8 µM (inactive)
TK-10
  GI50: 17 µM (inactive)
U-251
  GI50: 14.4 µM (inactive)
UACC-257
  GI50: 19.1 µM (inactive)
UACC-62
  GI50: 19 µM (inactive)
UO-31
  GI50: 13.1 µM (inactive)
XF498
  GI50: 18.9 µM (inactive)
